# Data published in patent US20020193319A1, “Use of EGF genistein to prevent development of EGF-receptor expressing cancers” (Parker Hughes Institute, priority 1999, published 2002).
# Where two headings read alike, the source gives them in different places.
# What was measured:
# MDA-MB-231 cells = experiment: FACS MC540/propidium iodide apoptosis assay; format: cell-based, human; conditions: 24 hours
# Procedure: Fluorescence activated cell sorting (FACS) was used to sort MDA-MB-231 cells (breast cancer cells expressing EGF-Rc). The cells were treated with either PBS EFG-Genistein (0.1, 1, and 10 μM) or unconjugated Geninstein (1, 10, and 100 μM) and incubated for 24 hours. The cells were then stained with MC-540 and propidium iodide. Single MC540 fluorescence (S-MC540) indicates the cell is at an early stage of apoptosis. Dual MC540/propidium iodide fluorescence (D-MC540/PI) indicates the cell is at an advanced stage of apoptosis. The total apoptotic fraction (TAF) is calculated as the percentage of MC540 fluorescent cells plus the percentage of MC540/propidium iodide double fluorescent cells.
# [1] = test system: human breast cancer (MDA-MB-231) xenografts; format: in vivo; conditions: 100 μg/kg/day intraperitoneally for 10 days, followed 20 days, vs PBS or unconjugated Genistein
# Procedure: The tumor diameter was determined daily for 20 days from the start of therapy. Control mice were treated with 0.2 ml of PBS for 10 consecutive days or unconjugated Genistein at a concentration of 500 μg/kg/day for 10 days. P values were determined using Student's t test.
# [2] = test system: Neu mediated mammary tumors; experiment: Prevention of spontaneous breast cancer in Neu/erbB2 transgenic mice; format: in vivo
# Procedure: Neu/erbB2 transgenic mice were chosen because they overexpress the Neu protooncogene in their mammary glands.
# As a control, 29 Neu/erbB2 mice were treated with PBS.
Substance,"% D-MC540/PI (Dual MC540/propidium iodide, advanced stage of apoptosis) (MDA-MB-231 cells; 1 μM)","% S-MC540 (Single MC540, early stage of apoptosis) (MDA-MB-231 cells; 1 μM)",% TAF (total apoptotic fraction: Single MC540 plus Dual MC540/propidium iodide) (MDA-MB-231 cells; 1 μM),"% D-MC540/PI (Dual MC540/propidium iodide, advanced stage of apoptosis) (MDA-MB-231 cells; 10 μM)","% S-MC540 (Single MC540, early stage of apoptosis) (MDA-MB-231 cells; 10 μM)",% TAF (total apoptotic fraction: Single MC540 plus Dual MC540/propidium iodide) (MDA-MB-231 cells; 10 μM),"% D-MC540/PI (Dual MC540/propidium iodide, advanced stage of apoptosis) (MDA-MB-231 cells; 100 μM)","% S-MC540 (Single MC540, early stage of apoptosis) (MDA-MB-231 cells; 100 μM)",% TAF (total apoptotic fraction: Single MC540 plus Dual MC540/propidium iodide) (MDA-MB-231 cells; 100 μM),"% S-MC540 (Single MC540, early stage of apoptosis) (MDA-MB-231 cells; 0.1 μM)",% TAF (total apoptotic fraction: Single MC540 plus Dual MC540/propidium iodide) (MDA-MB-231 cells; 0.1 μM),"tumor progression (tumor diameter) ([1]; 0.5 cm xenograft, FIG. 3A)","tumor progression (tumor diameter) ([1]; 1.0 cm xenograft, FIG. 3B)",side effects ([2]; 100 μg 1× per week for 10 weeks),"mice that developed breast cancer ([2]; 100 μg subcutaneously 1× per week for 10 weeks (5 mg/kg), from 4 months old, n=10)"
"EGF: Human epidermal growth factor, six kilodalton 53 amino acid single-chain polypeptide",0.8%,5.5%,6.3%,1.2%,9.5%,10.7%,2.0%,13.5%,15.5%,,,,,,
"EGF-Genistein: Genistein conjugated to epidermal growth factor (EGF), prepared as in Example 1 of U.S. Pat. No. 5,911,995",36.6%,61.0%,97.6%,56.7%,42.2%,98.9%,,,,78.8%,98.7%,reversed,slowed,not associated with any side effects,40%
